Marks after values point to notes of the source that are not given here. Peptide text beside a SMILES is read from it.
Key:
[1] = Binding to Echelon PPI Arrays (x9B); parameters: key: 0=no binding; 1=low binding; 2=medium binding; 3=high binding; conditions: 100 pmol PPI spot, colorimetric readout
Excerpt: Binding of immodulator peptides to Echelon PPI Arrays. PPI arrays were purchased from Echelon Biosciences (Sal Lake City, UT) and used according to the manufacturer's recommendations. Colorimetric readout from each 100 pmol PPI spot in the array is expressed as 0=no binding, 1=low binding, 2=medium binding and 3=high binding. […] In addition, IM3 and IM5 show slight binding to PI(3,4,5)P3.

[2] = Alexa488-SA-labelled IM1-IM6 binding to metal-charged NTA-coated plate (x2B d); conditions: no peptide background = 1.0
Experimental: NTA-metal-affinity fluorescence assay was performed using 96-well NTA-metal-coated plates readily available from commercial sources such as Qiagen (Germantown, MD). NTA was charged with ferrous or ferric iron, zinc, copper, calcium, vanadium, ruthenium, cobalt, titanium, manganese or other metals. 400 ng of FITC-labeled immodulator peptide (or biotinylated immodulator peptide complexed to Alexa-488-labeled streptavidin) in PBS buffer was added per plate. After incubation at room temperature for 60 minutes, excess peptide was washed off and peptide was detected by measuring fluorescence (excitation 490 nm, emmission 525 nm) in a fluorometer. • (a) Using FITC-labeled IM3 peptide (1 ug/well) in the fluorescent binding assay: • EDTA-treated control: 2,251±1,186 • Ferrous iron: 170,441±11,264 (p<0.001)* • Copper: 13,644±5566 (p<0.05)* • Calcium: 48,822±11,990 (p<0.01)* • *p values are relative to EDTA-treated control • (b) Competition binding assay to ferrous iron, calcium, copper and zinc-charged NTA-coated plates using FITC-labeled IM3 peptide (0.5 uM) and 8× (4 uM) unlabelled competitor peptides IM3N1, IM3N2 (*all comparisons to PBS control are p<0.01); # fluorescent value of binding to […] was set at 100.
Ferrous iron # (100±2.6*); Control (no metal): 6.4±3.1; Ferric iron: 94.1±6.6*; Calcium: 47.6±3.7*; Vanadium: 53.9±5.5*; Manganese: 54.4±11.2*; Cobalt: 25.4±2.3*; Copper: 58.4±6.4*; Zinc: 71.4±8.3*; Ruthenium: 67.8±8.3*; (d) Alexa488-SA-labelled immodulator peptide IM1, IM2, IM3, IM4, IM5, IM6 (400 ng/well) were bound to NTA-coated plate charged with the indicated metals: # background (no peptide) control set to 1.0;*p<0.05, **p<0.01 vs “no peptide”

[3] = Iron binding of separately labeled peptides (x2E e); conditions: each peptide labeled separately; IM3 = 100; ferric iron
Experimental: (§1) Experiments were conducted by the procedure described above. Ferric iron-charged NTA-coated 96-well plates were used as described. 1 ug/well immodulator peptide complexed to Alexa-488-labeled streptavidin in PBS buffer was added (60 min at room temperature). The plate was washed and counted in a standard fluorometer (excitation/emission: 485/525 nm). The results (fluorescence) show improved iron-binding by the three peptides extended C-terminally by the AVD, (dA)VD, and FVS tripeptides. **p<0.01 vs IM3 control IM3: 200±29; IM4: 45±37**; IM5: 130±77; IM3AVD: 434±29**; IM3dAVD: 418±28**; IM3FVS: 371±33** • (c) Competition assay. The same procedure was used as the preceding experiment, except that 375 ng/well labeled IM3 peptide was used, plus 10× of the indicated unlabeled peptide. ‘No competing peptide’ control value was set to 100. *p<0.05 vs “no peptide” control Competing Peptide/Fluorescence • None: 100±38; IM4: 125±26; IM3: 63±27*; IM5: 40±14*; IM3AVD: 10±28* • (d) Competition assay. The same procedure was used as the preceding experiment, except that labeled IM3AVD peptide was used. **p<0.01 vs “no competing peptide” control • None: 100±9; IM4: 144±44; IM3: 35±16**; IM5: 30±19**; IM3AVD: 9±19** • (e) The same procedure was used as the preceding experiment, except that each peptide was labeled with Alexa-488-labeled streptavidin in PBS buffer and used separately. Binding to IM3 was set to =100. *p<0.05, **p<0.01 vs IM3 control. (Labeled Peptide/Fluorescence) IM1: 1.8±0.4**; IM2: 3.0±1.8**; IM3: 100.0±16.8; IM4: 7.2±1.7*; IM5: 86.7±6.4; IM6: 85.9±14.9; IM3AVD:137.7±11.8*; IM3dAVD:147.4±22.9*; IM3FVS: 101.5±10.5.

A375 cells = assay: A375 cell viability, CellTiterGlo (x10A); type: cell-based; conditions: 72 hours
Experimental: Immune modulation functions of immodulator peptides have great potential untility in the field of cancer. A375 cell line was obtained from American Type Culture Collection (ATCC). They were grown in a T-75 flask in DMEM Medium containing 10% fetal bovine serum and penicillin-streptomycin at 37° C. in a humidified, 5% CO2 incubator. Cells ([…], 2,000 cells/well) were plated in a 96-well plate and incubated overnight at 37° C. in a humidified, 5% CO2 incubator. Next day, […] of compounds were added (quadruplicate wells). After 72 hour incubation with the compound, cell viability was measured in a luminometer after the addition of […] CellTiterGlo reagent (Promega Inc, Madison, WI) as recommended by the manufacturer.
Experiment x10A. Anti-cancer activity of immodulator peptides on A375 cells. A 96-well plate was seeded with 2,000 A375 cells per well in DMEM medium containing 10% FBS and PenStrep. After 24 hrs at 37 deg C., compounds and peptides were added (each treatment done in quadruplicate). After a further 72 hours incubation, 100 uL/well of CTG assay reagent purchased from Promega Inc. (Madison, WI) was added. Plate was read after 10 minutes, as recommended by the manufacturer. Peptides were added at 2 uM. The results of this experiment are shown below, expressed as percent survival ofA375 cells.

[4] = Strength of binding to iron, plate assay (x2E b); conditions: 1 ug/well peptide complexed to Alexa-488-streptavidin; ferric iron
Experimental: Immodulator peptides were extended C-terminally by three amino acids, to include a valine residue that is highly conserved in the “thyroglobulin type 1 motif”. The reasoning behind this attempt is that a longer conserved sequence might lead to a tighter fold overall, which might in turn result in increased metal-binding avidity. • (b) Strength of binding to iron was evaluated by plate assay.
as §1

Structure (SMILES) | binding to PI spot [1] | binding to PI(3,4,5)P3 spot [1] | binding to PI(4)P1 spot [1] | binding to PI(4,5)P2 spot [1] | fluorescence ([2]; Calcium) | fluorescence ([2]; Copper) | fluorescence ([2]; Ferrous iron, 400 ng/well) | fluorescence ([2]; Zinc) | fluorescence of labeled peptide [3] | fluorescence (iron binding) [4] | percent survival of A375 cells (A375 cells; peptide 2 uM, Buffer) [%] | percent survival of A375 cells (A375 cells; peptide 2 uM + Kin1400 4 uM (RIG-I agonist))
CSCC[C@H](NC(=O)[C@H](CCCCN)NC(=O)[C@H](CS)NC(=O)[C@H](CCC(N)=O)NC(=O)[C@H](CCCCN)NC(=O)[C@H](CC(C)C)NC(=O)[C@H](CC(N)=O)NC(=O)[C@H](Cc1ccc(O)cc1)NC(=O)[C@H](CC(C)C)NC(=O)CNC(=O)[C@H](Cc1c[nH]cn1)NC(=O)[C@@H](N)CCCCN)C(=O)N[C@@H](CO)C(=O)N[C@@H](CC(C)C)C(=O)N[C@@H](CC(N)=O)C(=O)NCC(=O)N[C@@H](CCC(N)=O)C(=O)N[C@@H](CCCNC(=N)N)C(=O)NCC(=O)N[C@@H](CCC(=O)O)C(=O)N[C@@H](CS)C(=O)N[C@@H](Cc1c[nH]c2ccccc12)C(=O)O [IM2] | 0 | 0 | 0 | 0 | 1.7 ± 0.2* | 3.6 ± 0.1** | 1.4 ± 0.3 | 1.1 ± 0.1 | 3.0±1.8 | – | 99.0 | –
N=C(N)NCCC[C@H](NC(=O)CNC(=O)[C@H](CCCCN)NC(=O)[C@H](CO)NC(=O)[C@@H]1CCCN1C(=O)[C@H](CCCNC(=N)N)NC(=O)[C@H](CS)NC(=O)[C@H](CCC(N)=O)NC(=O)[C@H](CCCCN)NC(=O)[C@H](CCCCN)NC(=O)[C@H](CCCCN)NC(=O)[C@H](Cc1ccc(O)cc1)NC(=O)[C@H](Cc1ccccc1)NC(=O)CNC(=O)[C@H](CCCCN)NC(=O)[C@@H](N)CCCCN)C(=O)N[C@@H](CCCCN)C(=O)N[C@@H](CCCNC(=N)N)C(=O)NCC(=O)N[C@@H](Cc1ccccc1)C(=O)N[C@@H](CS)C(=O)N[C@@H](Cc1c[nH]c2ccccc12)C(=O)O [IM3] (H-KKGFYKKKQCRPSKGRKRGFCW-OH; N-terminus and C-terminus assumed) | 0 | 1 | 0 | 3 | 28.7 ± 0.7** | 6.2 ± 0.2** | 24.7 ± 1.6** | 32.0 ± 0.7** | 100.0±16.8 | 200±29 | 100.3 | 62.2** percent

More lines, main results first:

binding to PI spot [1] | binding to PI(3,4,5)P3 spot [1] | binding to PI(4)P1 spot [1] | binding to PI(4,5)P2 spot [1] | fluorescence ([2]; Calcium) | fluorescence ([2]; Copper) | fluorescence ([2]; Ferrous iron, 400 ng/well) | fluorescence ([2]; Zinc) | fluorescence of labeled peptide [3] | fluorescence (iron binding) [4] | Structure (SMILES) | percent survival of A375 cells (A375 cells; peptide 2 uM, Buffer) [%] | percent survival of A375 cells (A375 cells; peptide 2 uM + Kin1400 4 uM (RIG-I agonist))
0 | 0 | 0 | 0 | 1.1 ± 0.1 | 3.0 ± 0.1** | 1.2 ± 0.3 | 1.1 ± 0.2 | 1.8±0.4 | – | CSCC[C@H](NC(=O)[C@H](CO)NC(=O)[C@@H](NC(=O)[C@H](CCC(=O)O)NC(=O)[C@H](CS)NC(=O)[C@H](CCC(N)=O)NC(=O)[C@H](CCCNC(=N)N)NC(=O)[C@H](CO)NC(=O)[C@H](Cc1c[nH]cn1)NC(=O)[C@H](Cc1ccc(O)cc1)NC(=O)[C@H](Cc1ccccc1)NC(=O)CNC(=O)[C@H](CC(N)=O)NC(=O)[C@@H](N)CCCCN)[C@@H](C)O)C(=O)N[C@@H](CC(=O)O)C(=O)NCC(=O)N[C@@H](CCC(=O)O)C(=O)N[C@@H](C)C(=O)NCC(=O)N[C@@H](CC(C)C)C(=O)N[C@@H](CS)C(=O)N[C@@H](Cc1c[nH]c2ccccc12)C(=O)O [IM1] (H-KNGFYHSRQCETSMDGEAGLCW-OH; N-terminus and C-terminus assumed) | 102.1 | –
0 | 0 | 0 | 0 | 1.0 ± 0.1 | 5.7 ± 0.1** | 2.8 ± 1.4 | 1.2 ± 0.2 | 7.2±1.7 | 45±37 | CC(C)C[C@H](NC(=O)[C@H](C)NC(=O)[C@@H]1CCCN1C(=O)[C@H](Cc1c[nH]cn1)NC(=O)[C@H](CS)NC(=O)[C@H](CCC(N)=O)NC(=O)[C@H](CCCCN)NC(=O)[C@@H]1CCCN1C(=O)[C@H](Cc1c[nH]cn1)NC(=O)[C@H](Cc1ccccc1)NC(=O)[C@H](CC(N)=O)NC(=O)CNC(=O)[C@H](CC(N)=O)NC(=O)[C@@H](N)CCCNC(=N)N)C(=O)N[C@@H](CC(=O)O)C(=O)NCC(=O)N[C@@H](CCC(N)=O)C(=O)N[C@@H](CCCNC(=N)N)C(=O)NCC(=O)N[C@@H](CCCCN)C(=O)N[C@@H](CS)C(=O)N[C@@H](Cc1c[nH]c2ccccc12)C(=O)O [IM4] (H-RNGNFHPKQCHPALDGQRGKCW-OH; N-terminus and C-terminus assumed) | 98.8 | –
0 | 1 | 2 | 3 | 23.4 ± 0.8** | 5.6 ± 0.1** | 20.5 ± 1.5** | 23.6 ± 0.1** | 86.7±6.4 | 130±77 | CC[C@H](C)[C@H](NC(=O)CNC(=O)[C@H](CCCNC(=N)N)NC(=O)[C@H](CCCCN)NC(=O)[C@H](CCCNC(=N)N)NC(=O)CNC(=O)[C@H](CCCNC(=N)N)NC(=O)[C@H](CO)NC(=O)[C@@H]1CCCN1C(=O)[C@H](CCCCN)NC(=O)[C@H](CS)NC(=O)[C@H](CCC(N)=O)NC(=O)[C@H](CCCCN)NC(=O)[C@H](CCCNC(=N)N)NC(=O)[C@H](CCCCN)NC(=O)[C@H](Cc1ccc(O)cc1)NC(=O)[C@H](Cc1ccccc1)NC(=O)CNC(=O)[C@H](CCCCN)NC(=O)[C@@H](N)CCCNC(=N)N)C(=O)N[C@@H](CS)C(=O)N[C@@H](Cc1c[nH]c2ccccc12)C(=O)O [IM5] (H-RKGFYKRKQCKPSRGRKRGICW-OH; N-terminus and C-terminus assumed) | – | –

Source: patent US12102685B2, “Immodulator peptides covalently modified with small molecules” (priority 2020, dated 2024)
